Key:
CPP32 [1] = experiment: dATP and cytochrome c-dependent activation of CPP32 in S-100 from human embryonic kidney 293 cells; format: biochemical
Experimental: (§1) FIG. 8 illustrates dATP and cytochrome c-dependent activation of CPP32 in S-100 cytosol preparations (immunodepleted of cytochrome c) from human embryonic kidney 293 cells and human monoblastic U937 cells. CPP32 activation reactions were carried out as described in FIG. 7 except 25 μg of S-100 was used in each reaction. 1 mM of dATP was present in lanes 2, 4, 6, 8, 10, and 12. Lanes 1 and 2, S-100 fraction from 293 cells; Lanes 3-4, S-100 fraction from 293 cells immunodepleted of cytochrome c; lanes 5 and 6, S-100 fraction from 293 cells immunodepleted of cytochrome c supplemented with 0.2 μg of Apaf-2 purified through the Mono S column step; Lanes 7 and 8, S-100 fraction from U937 cells; […], S-100 fraction from U937 cells immunodepleted of cytochrome c; lanes 11,12, S-100 fraction from U937 cells immunodepleted of cytochrome c supplemented with 0.2 μg of Apaf-2 purified through Mono S column step.
(§2) To investigate whether the dATP and cytochrome c-dependent activation of CPP32 is a general phenomenon, cytosols were prepared from human embryonic kidney 293 cells and human monoblastic leukemia U937 cells.
(§3) 293 cells were set up at 5×10^5 cells per 100 mm dish in medium A [Dulbecco's modified Eagle's medium (DMEM) supplemented with 10% (v/v) heat-inactivated fetal calf serum, 100 U/ml penicillin and 100 μg/ml streptomycin sulfate]. […]

CPP32 [2] = experiment: Assay for dATP-dependent activation of CPP32 protease (cleavage of in vitro translated 35S-labeled CPP32 in HeLa S-100); format: biochemical, hamster; details: 1 mM nucleotide, 30° C., 1 hr
Experimental: The samples were subjected to SDS-PAGE and transferred to a nitrocellulose filter. The filter was exposed to film for 16 hours at room temperature. In FIG. 2B, a 50 μl aliquot of HeLa S-100 (250 μg) was incubated with each aliquot of 6 μl hamster liver nuclei at 37° C. for 2 hr in the presence of 1 mM indicated nucleotide. The DNA was isolated, analyzed by 2% agarose gel electrophoresis and visualized by ethidium bromide staining.
To test the nucleotide specificity for activation of CPP32 and DNA fragmentation, HeLa cell S-100 was incubated with in vitro translated, ^35S-labeled CPP32 in the presence of 1 mM of various nucleotides (FIG. 2A).
A PCR fragment encoding amino acids 29-277 of hamster CPP32 [Wang et al. (1996) supra] was cloned into NdeI and BamHI sites of pET 15b vector (Novagen, Madison, Wis.). The resulting fusion protein of six histidines with hamster CPP32 (amino acids 29-277) was translated in a TNT T7 transcription/translation kit (Promega, Madison, Wis.) in the presence of ^35S-methionine according to the manufacturer's instructions. The translated protein was passed through a 1 ml nickel affirmity column (Qiagen, Chatsworth, Calif.) equilibrated with buffer A. After washing the column with 10 ml of buffer A, the translated CPP32 was eluted with buffer A containing 250 mM imidazole. Human SREBP-2 was translated in a TNT SP6 transcription/translation kit as described [Wang et al. (1995) [Hua et al. (1993) Proc. Natl. Acad. Sci. USA 90, 11603-11607]. Full length human PARP cDNA [Chemey et al. (1987) Proc. Natl. Acad. Sci. USA 84, 8370-8374] was cloned into SmaI and EcoRI sites of pBK-CMV vector (Stratagene, La Jolla, Calif.) and translated in a TNT T7 transcription/translation kit [Promega, Madison, Wis.]. The translated SREBP-2 and PARP (200 μl each) were purified by passing each translation mixture through a 10-ml Sephadex G-25 gel-filtration column equilibrated with buffer A. The translated proteins contained within the exclusion volume of the column were collected.
CPP32 was translated and purified as described above. Aliquot of 3 μl of the in vitro translated CPP32 was incubated with the indicated protein fraction, nucleotides, and 1 mM additional MgCl2 at 30° C. for 1 hour in a final volume of 20 μl of buffer A. At the end of the incubation, 7 μl of 4×SDS sample buffer was added to each reaction. After boiling for 3 min, each sample was subjected to a 15% SDS-polyacrylamide gel electrophoresis (SDS-PAGE). The gel was transferred to a nitrocellulose filter which was subsequently exposed to a Kodak X-OMAT AR X-ray film (Eastman Kodak, Rochester, N.Y.) for 16 hr at room temperature.

CPP32 [3] = experiment: dATP and cytochrome c-dependent activation of CPP32 in S-100 from human monoblastic U937 cells; format: biochemical
Experimental: as §1, §2, §3

Question: Nc1ncnc2c1ncn2[C@H]1C[C@H](O)[C@@H](COP(=O)(O)OP(=O)(O)OP(=O)(O)O)O1 [dATP, deoxyadenosine-5-triphosphate] was tested. Which “dATP-dependent CPP32 activating activity of S-100” value (CPP32 [1]; 293 cell S-100, 1 mM dATP) did it give?
Answer: contained a dATP-dependent CPP32 activating activity

Question: And the “cleavage of 35S-labeled CPP32 (nucleotide specificity)” value (CPP32 [2])?
Answer: Cleavage occurred

Question: And the “dATP-dependent CPP32 activating activity of S-100” value (CPP32 [3]; U937 cell S-100, 1 mM dATP)?
Answer: contained a dATP-dependent CPP32 activating activity

Question: With “Apaf-2: 15 kDa factor bound to phosphocellulose column, purified from HeLa S-100, identified as human cytochrome c” as the compound, how does the “restoration of CPP32 activating activity” value (CPP32 [1]; 293 cell S-100 immunodepleted of cytochrome c, 0.2 μg, 1 mM dATP) read?
Answer: restored the activity

Question: And the “restoration of CPP32 activating activity” value (CPP32 [3]; U937 cell S-100 immunodepleted of cytochrome c, 0.2 μg, 1 mM dATP)?
Answer: restored the activity

— patent US6558900B2, “Regulation of apoptosis and in vitro model for studies thereof” (Emory University, priority 1996, dated 2003)
